Experimental data reported in patent US5736528A, “N^6 -(epoxynorborn-2-yl) adenosines as A1 adenosine receptor agonists” (priority 1995, dated 1998).
Like-named read-outs stand apart in the source and are kept apart here.

Tests used:
A1-adenosine receptor [1] = target: T1, A1-adenosine receptor (Mesocricetus auratus, UniProt A0A1U8BVR4); settings: EC50, text to Table 8, DDT cells
T1 sequence (A0A1U8BVR4 1-326): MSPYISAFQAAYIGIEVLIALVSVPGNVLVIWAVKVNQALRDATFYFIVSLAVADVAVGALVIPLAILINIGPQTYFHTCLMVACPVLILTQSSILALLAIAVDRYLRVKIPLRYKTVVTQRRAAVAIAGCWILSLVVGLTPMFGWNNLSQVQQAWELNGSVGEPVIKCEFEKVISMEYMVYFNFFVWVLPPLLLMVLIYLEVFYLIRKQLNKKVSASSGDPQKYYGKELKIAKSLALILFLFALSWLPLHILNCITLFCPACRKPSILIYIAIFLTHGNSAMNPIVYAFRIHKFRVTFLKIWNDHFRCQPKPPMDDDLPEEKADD
Experimental: (§2) The agonist compounds were tested for their potency to inhibit (-)isoproterenol stimulated cAMP accumulation in DDT1 MF-2 (DDT) cells. This effect is mediated through the action of the A1 -adenosine receptor (A1 AR).
(§3) Cells were seeded at 0.2-1.0×10^4 cells/cm^2 and subcultured twice weekly after detachment using divalent cation-free phosphate-buffered saline containing 1 mM ethylenediamine tetraacetic acid (EDTA). Experiments were performed on cells that were grown to 1 day preconfluent.
(§4) The potency of the A1 AR agonists was determined by their ability to inhibit (-)isoproterenol-stimulated cAMP accumulation. […] After cooling to room temperature, the tubes were centrifuged for 2 minutes at 10,000 g, and supernatants were saved.
(§5) Briefly, an aliquot of the supernatant (50 μL) was incubated in a volume of 0.2 mL containing 25 mM Tris-HCl buffer (pH 7.0), 8 mM theophylline, 0.8 pmol [^3 H]cAMP (31.4 Ci/mmol, New England Nuclear) and 20 μg of bovine heart cAMP dependent protein kinase (Sigma Chemical Co.) at 4° C. for 1 hour. At the end of the incubation, 75 μl of a 50% (v/v) hydroxyapatite-water suspension was added to each tube followed by 4 ml of ice-cold 10 mM Tris-HCl buffer (pH 7.0). The suspension was then poured onto a Whatman GF/B glass fiber filter under reduced pressure, the filter was washed with a further 6 ml of ice-cold buffer, placed in a scintillation vial with 4 mL of Liquiscint (National Diagnostics), and the radioactivity determined in a liquid scintillation counter. The amount of cAMP in the samples was calculated from a standard curve using known concentrations of unlabeled cAMP.

A1 adenosine receptor [2] = target: A1 adenosine receptor (Homo sapiens, UniProt P30542); assay: A1 adenosine receptor agonist potency and selectivity (summary); settings: racemic isomers
A1 receptor [3] = target: T2, A1 receptor (Mesocricetus auratus, UniProt A0A1U8BVR4); assay: A1 receptor binding with [3H]CPX in intact DDT1 MF2 cells
T2 sequence (A0A1U8BVR4 1-326): T1 sequence (A0A1U8BVR4 1-326)
Excerpt: Radioligand binding studies.
(§6) Values are mean ± SEM of triplicate determinations in each
of several (n) preparations.

A1 receptor [4] = target: T3, A1 receptor (Cavia porcellus, UniProt P47745); assay: Antagonism of A1 receptor-mediated negative dromotropic effect (S-H interval prolongation) of CCPA, Schild analysis, isolated perfused heart; parameters: species or system guinea pig; settings: for Slope of Schild plot: mean ± S.E.M.
T3 construct: isolated perfused guinea pig heart; from tissue; host or cells: isolated perfused guinea pig heart
T3 sequence (P47745 1-326): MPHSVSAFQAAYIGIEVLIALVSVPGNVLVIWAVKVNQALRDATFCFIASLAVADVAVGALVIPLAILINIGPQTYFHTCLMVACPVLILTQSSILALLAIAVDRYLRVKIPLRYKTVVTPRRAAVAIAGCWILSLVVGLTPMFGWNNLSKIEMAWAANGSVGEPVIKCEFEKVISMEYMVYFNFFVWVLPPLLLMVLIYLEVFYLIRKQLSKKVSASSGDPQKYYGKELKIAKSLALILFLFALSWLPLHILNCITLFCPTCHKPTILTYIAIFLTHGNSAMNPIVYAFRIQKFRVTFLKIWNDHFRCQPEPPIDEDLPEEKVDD
Excerpt: Potency of various alkylxanthines to antagonize A1
cardiac response: results of Schild analysis.
Cardiac response: antagonism of the negative dromotropic effect of the
selective A1 agonist CCPA.

[5] = system: guinea pig tracheal muscle; assay: Relaxation of tracheal muscle
Excerpt: (§1) However, that can be useful in treating conditions that indicate short-acting treatments.

[6] = target: T4, rat brain adenosine A1 receptors (Rattus norvegicus, UniProt P25099); assay: Antagonism of radioligand binding to rat brain adenosine A1 receptors
T4 construct: rat brain A1 adenosine receptors; from tissue; host or cells: rat brain
T4 sequence (P25099 1-326): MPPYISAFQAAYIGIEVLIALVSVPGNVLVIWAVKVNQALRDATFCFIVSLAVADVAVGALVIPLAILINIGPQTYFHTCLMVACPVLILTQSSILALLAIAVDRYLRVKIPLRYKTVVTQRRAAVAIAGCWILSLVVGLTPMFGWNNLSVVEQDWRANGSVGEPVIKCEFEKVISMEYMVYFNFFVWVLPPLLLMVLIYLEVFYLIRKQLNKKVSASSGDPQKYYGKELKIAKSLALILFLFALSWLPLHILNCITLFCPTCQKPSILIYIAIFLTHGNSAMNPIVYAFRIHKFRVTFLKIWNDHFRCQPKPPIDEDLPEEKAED
Excerpt: (§7) rat brain adenosine A1 and A2 receptors ("IC50 "* values)
(§8) *"IC50 " refers to the concentration at which radioligand binding to
receptors was 50% inhibited.

A1 adenosine receptor [7] = target: T5, A1 adenosine receptor (Rattus norvegicus, UniProt P25099); assay: Biological activity and duration of action of ENX enantiomers; assay type: in vivo; settings: for duration of action: S- vs R-enantiomer
T5 construct: from tissue; host or cells: whole animal
T5 sequence (P25099 1-326): T4 sequence (P25099 1-326)

hydrated rat = assay: Saluretic/kaluretic activity in hydrated rat; assay type: in vivo; settings: 30 mg/kg per os
Excerpt: as §1

[8] = system: serum cholesterol and heparin precipitating β-lipoproteins; assay: Serum cholesterol and heparin precipitating β-lipoproteins in mice; assay type: in vivo; settings: 100 mg/kg per os
rats = assay: Cumulative urine output (diuretic activity) in rats; assay type: in vivo, rat
[9] = target: T6, rat brain adenosine A2 receptors (Rattus norvegicus, UniProt P30543); assay: Antagonism of radioligand binding to rat brain adenosine A2 receptors
T6 construct: rat brain adenosine A1 and A2 receptors; from tissue; host or cells: rat brain
Excerpt: as §7, §8
receptors was 50% inhibited.

[10] = target: T7, rat brain A1 adenosine receptors (Rattus norvegicus, UniProt P25099); assay: Equilibrium dissociation constants for rat brain A1 adenosine receptors; assay type: binding; settings: Table 6
T7 construct: rat brain A1 adenosine receptors; from tissue; host or cells: rat brain

[11] = Metabolism of ENX enantiomer; assay type: in vitro ADME
[12] = system: paroxysmal supraventricular tachycardia (PSVT); settings: in vivo; cited from earlier work
guinea pig hearts = assay: Left ventricular pressure and dP/dt (inotropic effect) in isolated hearts
Excerpt: Identical results were obtained in three other hearts.

A2 adenosine receptor [13] = target: T8, A2 adenosine receptor (Cavia porcellus, UniProt P46616); assay: A2 receptor binding with [3H]CGS 21,860 in striatum membranes (Table 5); parameters: species or system guinea pig; settings: mean ± S.E.M., read-out: K1, A2 (striatum)
T8 construct: from tissue; host or cells: guinea pig striatum membranes
Excerpt: (§9) Values are mean ± S.E.M. of triplicate determinations in
each of four preparations.

A1 receptor [14] = target: T3, A1 receptor; assay: S-H interval prolongation by adenosine in isolated heart, antagonism by ENX; parameters: species or system guinea pig
Excerpt: The height of each bar graph presents the mean±SEM of 4 experiments.

A2 receptor [15] = target: T9, A2 receptor (Rattus norvegicus, UniProt P30543); assay: A2 receptor binding with [3H]NECA in PC12 cell membranes; settings: mean ± SEM (n), read-out: Ki, PC-12
T9 construct: endogenous in cells; host or cells: PC12 cell membranes
Experimental: Radioligand binding studies.
A2 receptor binding was carried out with [^3 H]NECA in PC12 cell
membranes. Values are mean ± SEM of triplicate determinations in each
of several (n) preparations.

A2 receptor [16] = target: T10, A2 receptor (Cavia porcellus, UniProt P46616); assay: Antagonism of A2 receptor-mediated coronary vasodilation (coronary conductance) caused by adenosine, isolated perfused heart; parameters: species or system guinea pig
T10 construct: isolated perfused guinea pig heart; from tissue; host or cells: isolated perfused guinea pig heart (coronary circulation)
Excerpt: The values are the mean±SEM from five guinea pig hearts.
of a maximum coronary vasodilation caused by adenosine. Values in

phosphodiesterase = assay: Phosphodiesterase activity in homogenates of DDT1 MF-2 cells; assay type: biochemical; settings: DDT1 MF-2 homogenate, 45 min, 30° C.
Experimental: Cells were homogenized in 40 mM Tris buffer at pH 8.0, and the whole homogenate was used in the enzyme assays. PDE activity was determined by incubating homogenate (0.4 mg protein) in Tris buffer containing 20 mM MgCl2, 4 mM mercaptoethanol, 0.06 mg bovine serum albumin, 0.4 mM cAMP 130 nCi of [^3 H]cAMP and the indicated concentrations of ENX or IBMX for 45 min at 30° C. Blank incubations were carried out in parallel assays without the homogenate. At the end of the incubation, the suspensions were incubated in a boiling water bath for 2 minutes, transferred to an ice-water bath for 2 minutes and 0.1 mg of snake venom phosphodiesterase was added. The suspensions were incubated for 10 minutes at 30° C., and the adenosine formed was isolated by ion exchange chromatography. […] The amount of adenosine formed was linear over the incubation period used.

A1 adenosine receptor [17] = target: T11, A1 adenosine receptor (Cavia porcellus, UniProt P47745); assay: A1 receptor binding with [3H]CPX in forebrain membranes (Table 5); parameters: guinea pig forebrain (A1 receptor); from tissue; host or cells: guinea pig forebrain membranes; species or system guinea pig
Excerpt: as §9
each of four preparations.

A1 receptor [18] = target: T3, A1 receptor; assay: A1 receptor binding with [3H]CPX in brain membranes (Table 4); parameters: species or system guinea pig
Excerpt: Radioligand binding studies.
as §6
of several (n) preparations.

[19] = system: negative dromotropic effect of carbachol or MgCl2; assay: Specificity: negative dromotropic effect of carbachol or MgCl2 in isolated heart; parameters: species or system guinea pig; settings: ENX 2 nM, 2 μM
Excerpt: The height of each bar graph presents the mean±SEM of 4 experiments. Only the S--H interval prolongation caused by adenosine was antagonized by ENX.

A1-adenosine receptor [20] = settings: 1 μM (-)isoproterenol
Experimental: as §2, §3, §4, §5

A1-adenosine receptor [21] = settings: 1 μM alone; 10 min
Experimental: as §2, §3, §4, §5

A2 adenosine receptor [22] = assay: Hypotensive (A2) effect in whole animals; assay type: in vivo
A1 adenosine receptor [23] = target: T11, A1 adenosine receptor; assay: Slowing of A-V conduction (A1 effect) versus coronary vasodilation (A2 effect); parameters: slowing of A--V (A1 effect) conduction; from tissue

T10 sequence (P46616 whole entry, the tested form may be a part): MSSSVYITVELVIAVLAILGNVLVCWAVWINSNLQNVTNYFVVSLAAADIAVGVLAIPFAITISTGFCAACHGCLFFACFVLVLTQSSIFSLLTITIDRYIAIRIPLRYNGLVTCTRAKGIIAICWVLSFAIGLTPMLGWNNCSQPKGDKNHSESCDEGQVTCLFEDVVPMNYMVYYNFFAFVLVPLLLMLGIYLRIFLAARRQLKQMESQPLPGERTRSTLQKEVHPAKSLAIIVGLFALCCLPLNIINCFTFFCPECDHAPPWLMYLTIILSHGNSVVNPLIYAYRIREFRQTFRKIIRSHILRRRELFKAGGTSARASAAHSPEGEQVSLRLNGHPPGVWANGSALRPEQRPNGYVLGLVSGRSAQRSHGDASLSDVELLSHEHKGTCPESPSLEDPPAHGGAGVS
T6 sequence (P30543 whole entry): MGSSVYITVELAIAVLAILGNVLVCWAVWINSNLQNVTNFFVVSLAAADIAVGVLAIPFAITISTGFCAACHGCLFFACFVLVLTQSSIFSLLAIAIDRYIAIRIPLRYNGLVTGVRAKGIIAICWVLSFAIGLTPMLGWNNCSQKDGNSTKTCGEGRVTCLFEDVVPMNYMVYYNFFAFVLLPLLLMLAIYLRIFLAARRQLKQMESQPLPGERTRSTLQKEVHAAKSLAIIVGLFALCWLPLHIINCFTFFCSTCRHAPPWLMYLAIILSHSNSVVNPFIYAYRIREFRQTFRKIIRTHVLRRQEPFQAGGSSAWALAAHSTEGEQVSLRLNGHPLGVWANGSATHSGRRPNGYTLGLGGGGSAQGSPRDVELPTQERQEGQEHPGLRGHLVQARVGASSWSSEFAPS
T8 sequence (P46616 whole entry): as the sequence (P46616 whole entry, the tested form may be a part) above
A1 adenosine receptor (Homo sapiens, UniProt P30542), sequence (P30542 whole entry): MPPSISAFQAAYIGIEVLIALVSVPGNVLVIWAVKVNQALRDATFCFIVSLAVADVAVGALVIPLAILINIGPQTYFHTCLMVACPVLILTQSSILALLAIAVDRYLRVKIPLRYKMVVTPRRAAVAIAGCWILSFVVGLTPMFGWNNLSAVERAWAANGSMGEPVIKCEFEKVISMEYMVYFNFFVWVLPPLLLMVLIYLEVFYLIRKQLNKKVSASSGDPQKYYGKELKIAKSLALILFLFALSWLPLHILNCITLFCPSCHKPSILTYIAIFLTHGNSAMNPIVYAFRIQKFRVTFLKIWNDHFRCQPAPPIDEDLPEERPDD
T9 sequence (P30543 whole entry): as the sequence (P30543 whole entry) above

OC[C@H]1O[C@@H](n2cnc3c(N[C@H]4C[C@@H]5C[C@H]4[C@H]4O[C@@H]54)ncnc32)[C@H](O)[C@@H]1O (relative stereo) [N^6-(endo-5,6-epoxynorborn-2-yl) adenosine]
EC50 (A1-adenosine receptor [1]): 1 to 2 nM
A1 agonist potency and selectivity (A1 adenosine receptor [2]): potent and highly selective agonists

CCCn1c(=O)c2[nH]c(C3CCCC3)nc2n(CCC)c1=O [CPX, 8-cyclopentyl-1,3-dipropylxanthine]
Ki (A1 receptor [3]): 0.13 ± 0.01 nM
Slope of Schild plot (A1 receptor [4]): -0.81 ± 0.03

CCCn1c(=O)c2[nH]c([C@H]3C[C@@H]4C[C@H]3[C@H]3O[C@@H]43)nc2n(CCC)c1=O [S-ENX]
tracheal smooth muscle relaxation / bronchodilation [5]: bronchodilators
relaxation of constricted tracheal muscle ([5]; guinea pig, 100 mg/kg per os): relaxed constricted guinea pig tracheal muscle
IC50 [6]: 1.15 nM
duration of action (A1 adenosine receptor [7]; listed as S-enantiomer): longer duration of action than the R-enantiomer
duration of action (A1 adenosine receptor [7]; listed as S-enantiomer of ENX): longer
share of the biological activity of racemic ENX (A1 adenosine receptor [7]; in vivo): 80-90%
kaluretic activity (hydrated rat): Moderate kaluretic activity
serum cholesterol and heparin precipitating β-lipoproteins [8]: reduced serum cholesterol and heparin precipitating β-lipoproteins
diuretic activity (cumulative urine output) (rats; 0.1 mg/kg i.v., 2 hours, rats): more potent than the R-enantiomer of ENX or a racemic mixture of R-and S-enantiomers of ENX
IC50 [9]: 9000 nM
Ki [10]: 0.98 nM

CCCn1c(=O)c2[nH]c([C@@H]3C[C@H]4C[C@@H]3[C@@H]3O[C@H]43)nc2n(CCC)c1=O [R-ENX]
tracheal smooth muscle relaxation / bronchodilation [5]: bronchodilators
relaxation of spontaneous tone in trachea ([5]; guinea pig trachea): induce relaxation of spontaneous tone
IC50 [6]: 2.7 nM
metabolism [11]: rapidly degraded or metabolized
duration of action (A1 adenosine receptor [7]): very short duration of action as compared to the S-enantiomer
IC50 [9]: 2600 nM
Ki [10]: 2.1 nM

OC[C@H]1O[C@@H](n2cnc3c(NC4CCCC4)ncnc32)[C@H](O)[C@@H]1O [CPA, N^6 -cyclopentyladenosine, reference compound]
EC50 (A1-adenosine receptor [1]): 1 to 2 nM

Nc1ncnc2c1ncn2[C@@H]1O[C@H](CO)[C@@H](O)[C@H]1O [Adenosine]
effectiveness in terminating PSVT [12]: > 90%

CCCn1c(=O)c2[nH]c(C3CC4CC3C3OC43)nc2n(CCC)c1=O (racemic) [ENX, 1,3-dipropyl-8-{3-oxatricyclo[3.1.2.0^2,4]oct-6(7)-yl}-xanthine]
Ki (A1 receptor [3]): 0.22 ± 0.03 nM
stimulus-to-His bundle interval, ENX alone (guinea pig hearts; ENX alone, up to 200 μM): no significant changes
LVP or dP/dt (guinea pig hearts; normoxic hearts, ENX 2-200 μM): no significant changes
Ki (A2 adenosine receptor [13]): 360 ± 36 nM
tracheal smooth muscle relaxation / bronchodilation [5]: relax tracheal smooth muscle
IC50 [6]: 1.65 nM
antagonism of S-H prolongation caused by adenosine (A1 receptor [14]; ENX 2 nM, 2 μM, adenosine 4 μM): did antagonize
effect on S-H interval prolongation caused by adenosine (A1 receptor [14]; ENX 0.4 μM with adenosine 4 μM): completely inhibited
Ki (A2 receptor [15]): 11700 nM
IC50 for A2 receptor-mediated coronary vasodilation (A2 receptor [16]): no effect
inhibition at 50 µM (A2 receptor [16]; read-out: inhibition of coronary vasodilation): 0%
phosphodiesterase inhibition (phosphodiesterase): does not inhibit phosphodiesterase
diuretic potency compared with furosemide (Lasix) (rats; rat, in vivo): at least as high as the potency of furosemide
IC50 [9]: 2100 nM
Ki (A1 adenosine receptor [17]): 0.45 ± 0.13 nM
Ki (A1 receptor [18]): 0.45 ± 0.22 nM
antagonism of negative dromotropic effect of carbachol or MgCl2 [19]: did not antagonize
Kb (A1 receptor [4]): 3.6 nM
Slope of Schild plot (A1 receptor [4]): -0.91 ± 0.06

[O-][n+]1cnc2c(ncn2[C@@H]2O[C@H](CO)[C@@H](O)[C@H]2O)c1N[C@@H]1C[C@@H]2C[C@H]1[C@H]1O[C@@H]21 (relative stereo) [N^6-(exo-5,6-epoxynorborn-2-yl) adenosine-1-oxide]
EC50 (A1-adenosine receptor [1]): 403 nM

CC(C)NC[C@H](O)c1ccc(O)c(O)c1 [(-)Isoproterenol, reference compound]
stimulated cAMP accumulated (A1-adenosine receptor [20]): 458 ± 41 pmol cAMP formed per 10 minutes
cAMP accumulation increase above basal level (A1-adenosine receptor [21]): 57 fold

OC[C@H]1O[C@@H](n2cnc3c(N[C@@H]4C[C@@H]5C[C@H]4[C@H]4O[C@@H]54)ncnc32)[C@H](O)[C@@H]1O (relative stereo) [N^6-(exo-5,6-epoxynorborn-2-yl) adenosine]
EC50 (A1-adenosine receptor [1]): 1 to 2 nM
A1 agonist potency and selectivity (A1 adenosine receptor [2]): potent and highly selective agonists

Cn1c(=O)c2[nH]c(C3CCCC3)nc2n(C)c1=O [CPT, 8cyclopentyl-1,3-dimethylxanthine]
Ki (A1 receptor [18]; read-out: Ki, Brain): 41 ± 13 nM

OC[C@H]1O[C@@H](n2cnc3c(N[C@H]4C[C@@H]5C[C@H]4[C@H]4O[C@@H]54)ncnc32)[C@H](O)[C@@H]1O [N^6-(2S-endo-5,6-epoxynorborn-2-yl) adenosine]
hypotensive (A2) effect (A2 adenosine receptor [22]): no discernable hypotensive (A2) effect
potency for slowing of A-V conduction (A1) over coronary vasodilation (A2) (A1 adenosine receptor [23]): more than 100 fold

CCCn1c(=O)c2[nH]c(C34CC5CC(CC3C5)C4)nc2n(CCC)c1=O [NAX, 1,3dipropyl-8-(3-noradamantyl)xanthine]
Ki (A1 receptor [3]; read-out: Ki, DDT1 MF2): 0.18 ± 0.05 nM
Ki (A2 adenosine receptor [13]): 22 ± 6.9 nM
IC50 (A2 receptor [16]): 7100 nM
Ki (A1 receptor [18]; read-out: Ki, Brain): 3.8 ± 0.21 nM
Kb (A1 receptor [4]; Schild analysis, numbers in parentheses are minimum and maximum KB values, read-out: KB, equilibrium dissociation constant): 1.6 nM
Slope of Schild plot (A1 receptor [4]): -0.89 ± 0.11

CC(C)Cn1c(=O)n(C)c(=O)c2[nH]cnc21 [IBMX, isobutylmethylxanthine, reference compound]
phosphodiesterase inhibition (phosphodiesterase): inhibits phosphodiesterase
